Data reported in US8741934B2, “Inhibitors of ion channels” (Pfizer Limited, priority 2007, dated 2014).
Like-named read-outs stand apart in the source and are kept apart here.

Biological target: T1, hSCN3A sodium channels (Homo sapiens, UniProt Q9NY46)
T1 construct: expressed in transfected cells
Test: hSCN3A electrophysiology, whole-cell patch-clamp or PatchXpress 7000, estimated IC-50 (Table B)
Format: cell-based
Method in brief: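 A 20 msec test pulse to 0 mV followed an 8 sec conditioning prepulse at each cell's measured V1/2. Room-temperature (22-24° C) recordings on HEK cells stably expressing the channel, conventional or PatchXpress.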

[1] = estimated IC-50, hSCN3A cells, whole-cell patch-clamp or PatchXpress 7000, read-out: SCN3A EIC-50

T1 sequence (Q9NY46 whole entry): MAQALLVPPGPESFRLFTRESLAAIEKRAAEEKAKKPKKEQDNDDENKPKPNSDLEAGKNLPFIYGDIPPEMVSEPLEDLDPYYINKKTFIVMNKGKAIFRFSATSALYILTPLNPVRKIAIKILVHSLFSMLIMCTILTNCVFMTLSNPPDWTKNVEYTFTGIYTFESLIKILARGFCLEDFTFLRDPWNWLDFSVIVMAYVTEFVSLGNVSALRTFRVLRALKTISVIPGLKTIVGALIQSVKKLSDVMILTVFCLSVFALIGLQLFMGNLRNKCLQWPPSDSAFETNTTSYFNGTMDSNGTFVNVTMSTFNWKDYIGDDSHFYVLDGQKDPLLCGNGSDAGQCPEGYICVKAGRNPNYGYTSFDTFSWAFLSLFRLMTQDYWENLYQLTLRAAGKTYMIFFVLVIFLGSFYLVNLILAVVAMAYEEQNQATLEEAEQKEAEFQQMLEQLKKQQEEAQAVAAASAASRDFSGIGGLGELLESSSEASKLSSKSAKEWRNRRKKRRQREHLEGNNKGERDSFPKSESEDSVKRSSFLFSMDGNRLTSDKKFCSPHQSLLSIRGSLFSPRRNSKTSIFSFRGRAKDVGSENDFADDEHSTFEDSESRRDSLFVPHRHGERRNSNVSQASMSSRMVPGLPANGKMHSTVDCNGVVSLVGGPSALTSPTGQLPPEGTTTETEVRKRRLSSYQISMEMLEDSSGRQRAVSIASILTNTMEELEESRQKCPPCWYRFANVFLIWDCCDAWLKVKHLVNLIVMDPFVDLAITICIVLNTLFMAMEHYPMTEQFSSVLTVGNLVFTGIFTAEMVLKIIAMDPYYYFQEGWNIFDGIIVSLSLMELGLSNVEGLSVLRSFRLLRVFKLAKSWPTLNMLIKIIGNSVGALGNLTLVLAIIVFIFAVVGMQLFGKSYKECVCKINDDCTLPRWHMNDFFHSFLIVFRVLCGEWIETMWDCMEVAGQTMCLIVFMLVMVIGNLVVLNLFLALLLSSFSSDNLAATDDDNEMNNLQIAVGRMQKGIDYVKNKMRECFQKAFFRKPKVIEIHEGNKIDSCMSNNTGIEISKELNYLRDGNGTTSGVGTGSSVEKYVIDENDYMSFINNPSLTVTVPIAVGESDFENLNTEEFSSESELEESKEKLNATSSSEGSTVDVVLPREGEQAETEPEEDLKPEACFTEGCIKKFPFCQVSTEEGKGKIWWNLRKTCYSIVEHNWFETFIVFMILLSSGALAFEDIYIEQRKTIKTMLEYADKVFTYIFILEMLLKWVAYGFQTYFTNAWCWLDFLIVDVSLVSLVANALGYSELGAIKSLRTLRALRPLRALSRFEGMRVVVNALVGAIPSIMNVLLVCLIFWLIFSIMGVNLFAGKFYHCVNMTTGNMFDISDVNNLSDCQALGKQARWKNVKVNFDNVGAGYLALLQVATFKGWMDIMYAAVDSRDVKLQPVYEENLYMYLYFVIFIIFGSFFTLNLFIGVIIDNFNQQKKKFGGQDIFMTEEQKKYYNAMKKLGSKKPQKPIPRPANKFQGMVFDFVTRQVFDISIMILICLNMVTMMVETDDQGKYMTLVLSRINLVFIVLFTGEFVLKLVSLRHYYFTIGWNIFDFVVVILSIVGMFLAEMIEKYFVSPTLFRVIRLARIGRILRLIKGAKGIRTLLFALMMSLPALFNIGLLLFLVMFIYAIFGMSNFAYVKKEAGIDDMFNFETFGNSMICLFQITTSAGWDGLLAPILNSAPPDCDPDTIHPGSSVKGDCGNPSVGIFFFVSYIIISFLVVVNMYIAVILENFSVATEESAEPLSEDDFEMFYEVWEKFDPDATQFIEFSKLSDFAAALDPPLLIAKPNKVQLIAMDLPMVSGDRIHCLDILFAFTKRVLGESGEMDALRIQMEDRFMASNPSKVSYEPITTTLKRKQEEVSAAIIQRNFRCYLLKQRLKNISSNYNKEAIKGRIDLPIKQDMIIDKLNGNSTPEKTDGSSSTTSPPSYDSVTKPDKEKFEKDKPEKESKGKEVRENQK

| SMILES | IC50 [1] [nM] | IC50 [nM] |
| --- | --- | --- |
| CC1(c2ccc(Cl)cc2)CCN(C(=O)c2ccc(S(=O)(=O)Nc3nccs3)cc2)CC1 [Example 195, 4-{[4-(4-Chlorophenyl)-4-methylpiperidin-1-yl]carbonyl}-N-1,3-thiazol-2-yl-benzenesulfonamide] | 280 | – |
| O=C(Nc1ccn(Cc2ccc(Cl)cc2)n1)c1ccc(S(=O)(=O)Nc2ncc(Cl)s2)c(F)c1 [Example 380, N-[1-(4-chlorobenzyl)-1H-pyrazol-3-yl]-4-{[(5-chloro-1,3-thiazol-2-yl)amino]sulfonyl}-3-fluorobenzamide] | 170 | – |
| O=C(NCc1ccc(F)c(Cl)c1)c1ccc(S(=O)(=O)Nc2nccs2)cc1 [Example 401, N-(3-chloro-4-fluorobenzyl)-4-[(1,3-thiazol-2-ylamino)sulfonyl] benzamide] | 170 | – |
| O=C(NCc1ccc(F)cc1Cl)c1ccc(S(=O)(=O)Nc2nccs2)cc1 [Example 95, N-(2-chloro-4-fluorobenzyl)-4-[(1,3-thiazol-2-ylamino)sulfonyl]benzamide] | > 100 | – |
| CC(NC(=O)c1ccc(S(=O)(=O)Nc2ncns2)cc1)c1ccc(C(F)(F)F)cc1 (centres unmarked) [Example 322, 4-[(1,2,4-Thiadiazol-5-ylamino)sulfonyl]-N-{1-[4-(trifluoromethyl)phenyl]ethyl}benzamide] | 340 | – |
| O=C(NCc1ccc(OC(F)(F)F)c(F)c1)c1ccc(S(=O)(=O)Nc2nccs2)c(Cl)c1 [Example 286, 3-Chloro-N-[3-fluoro-4-(trifluoromethoxy)benzyl]-4-[(1,3-thiazol-2-yl-amino)sulfonyl]benzamide] | 140 | – |
| O=C(NCc1ccc(C(F)(F)F)cc1)c1ccc(S(=O)(=O)Nc2nccs2)cn1 [Example 342, 5-[(1,3-Thiazol-2-ylamino)sulfonyl]-N-[4-(trifluoromethyl)benzyl] pyridine-2-carboxamide] | 510 | – |
| O=C(NCc1ccc(F)c(OC(F)(F)F)c1)c1ccc(S(=O)(=O)Nc2ncc(Cl)s2)cc1 [Example 32, 4-{[(5-Chloro-1,3-thiazol-2-yl)amino]sulfonyl}-N-[4-fluoro-3-(trifluoromethoxy)benzyl]benzamide] | 70 | – |
| O=C(NCc1ccc(OC(F)(F)F)c(F)c1)c1ccc(S(=O)(=O)Nc2ncns2)cc1Cl [Example 376, 2-Chloro-N-[3-fluoro-4-(trifluoromethoxy)benzyl]-4-[(1,2,4-thiadiazol-5-ylamino)sulfonyl] benzamide] | 590 | – |
| O=C(NCc1cccc(OC(F)(F)F)c1)c1ccc(S(=O)(=O)Nc2ncc(Cl)s2)cc1F [Example 357, 4-{[(5-Chloro-1,3-thiazol-2-yl)amino]sulfonyl}-2-fluoro-N-[3-(trifluoromethoxy)benzyl]benzamide] | 190 | – |
| O=C(NCc1ccc(C(F)(F)F)cc1)c1cccc(S(=O)(=O)Nc2nncs2)c1 [Example 350, 3-[(1,3,4-Thiadiazol-2-ylamino)sulfonyl]-N-[4-(trifluoromethyl)benzyl]benzamide] | – | > 10000 |
| O=C(NCc1ccc(OC(F)(F)F)c(F)c1)c1ccc(S(=O)(=O)Nc2nccs2)cc1 [Example 394, N-[3-fluoro-4-(trifluoromethoxy)benzyl]-4-[(1,3-thiazol-2-ylamino)sulfonyl]benzamide] | 90 | – |
| O=C(NCc1ccc(C(F)(F)F)cc1)c1ccc(S(=O)(=O)Nc2ncns2)cc1Cl [Example 377, 2-Chloro-4-[(1,2,4-thiadiazol-5-ylamino)sulfonyl]-N-[4-(trifluoromethyl)benzyl] benzamide] | 850 | – |
| Cc1ccc(Cl)cc1CNC(=O)c1ccc(S(=O)(=O)Nc2nccs2)cc1 [Example 64, N-(5-chloro-2-methylbenzyl)-4-[(1,3-thiazol-2-ylamino)sulfonyl]benzamide] | 450 | – |
| O=C(NCc1ccc(C(F)(F)F)cc1)c1cccc(S(=O)(=O)Nc2nccs2)c1 [Example 349, 3-[(1,3-Thiazol-2-ylamino)sulfonyl]-N-[4-(trifluoromethyl)benzyl]benzamide] | 9870 | – |
| O=C(NCc1ccc(F)c(OC(F)(F)F)c1)c1ccc(S(=O)(=O)Nc2ncc(Cl)s2)c(Cl)c1 [Example 367, 3-Chloro-4-{[(5-chloro-1,3-thiazol-2-yl)amino]sulfonyl}-N-[4-fluoro-3-(trifluoromethoxy)benzyl]benzamide] | 1510 | – |
| N#Cc1cccc(CNC(=O)c2ccc(S(=O)(=O)Nc3nccs3)cc2)c1 [Example 180, N-(3-cyanobenzyl)-4-[(1,3-thiazol-2-ylamino)sulfonyl]benzamide] | > 1000 | – |
| Cc1nc(NS(=O)(=O)c2ccc(C(=O)NCc3ccc(C(F)(F)F)cc3)cc2)cs1 [Example 15, 4-{[(2-Methyl-1,3-thiazol-4-yl)amino]sulfonyl}-N-[4-(trifluoromethyl)benzyl]benzamide] | 31000 | – |
| O=C(NCc1ccc(F)c(F)c1)c1ccc(S(=O)(=O)Nc2ncc(Cl)s2)c(Cl)c1 [Example 371, 3-Chloro-4-{[(5-chloro-1,3-thiazol-2-yl)amino]sulfonyl}-N-(3,4-difluorobenzyl) benzamide] | 1300 | – |

| SMILES | IC50 [1] [nM] | IC50 [nM] |
| --- | --- | --- |
| O=C(NCc1ccc(OC(F)(F)F)c(F)c1)c1ccc(S(=O)(=O)Nc2ncc(Cl)s2)cc1Cl [Example 337, 2-Chloro-4-{[(5-chloro-1,3-thiazol-2-yl)amino]sulfonyl}-N-[3-fluoro-4-(trifluoromethoxy)benzyl]benzamide] | 390 | – |
| O=C(NCc1ccc(Cl)c(Cl)c1)c1ccc(S(=O)(=O)Nc2nccs2)cc1 [Example 388, N-(3,4-dichlorobenzyl)-4-[(1,3-thiazol-2-ylamino)sulfonyl]benzamide] | 110 | – |
| O=C(c1ccc(S(=O)(=O)Nc2nccs2)cc1)N1CCC(O)(c2ccc(Cl)cc2)CC1 [Example 236, 4-{[4-(4-Chlorophenyl)-4-hydroxypiperidin-1-yl]carbonyl}-N-1,3-thiazol-2-ylbenzenesulfonamide] | 3110 | – |
| O=C(NCc1ccc(C(F)(F)F)nc1)c1ccc(S(=O)(=O)Nc2nccs2)cc1 [Example 408, 4-[(1,3-Thiazol-2-ylamino)sulfonyl]-N-{[6-(trifluoromethyl)pyridin-3-yl]methyl}benzamide] | 1090 | – |
| O=C(NCc1ccc(Cl)c(F)c1)c1ccc(S(=O)(=O)Nc2ncc(Cl)s2)c(Cl)c1 [Example 369, 3-Chloro-N-(4-chloro-3-fluorobenzyl)-4-{[(5-chloro-1,3-thiazol-2-yl)amino]sulfonyl} benzamide] | 6170 | – |
| O=C(c1ccc(S(=O)(=O)Nc2nccs2)cc1)N1CCC(O)(c2cccc(F)c2)CC1 [Example 220, 4-{[4-(3-Fluorophenyl)-4-hydroxypiperidin-1-yl]carbonyl}-N-1,3-thiazol-2-yl-benzenesulfonamide] | > 1000 | – |
| O=C(NCc1ccc(C(F)(F)F)c(Cl)c1)c1ccc(S(=O)(=O)Nc2ncns2)c(F)c1 [Example 317, N-[3-chloro-4-(trifluoromethyl)benzyl]-3-fluoro-4-[(1,2,4-thiadiazol-5-ylamino)sulfonyl]benzamide] | 40 | – |
| O=C(NC(c1cccc(C(F)(F)F)c1F)C1CC1)c1ccc(S(=O)(=O)Nc2nccs2)cc1 (centres unmarked) [Example 119, N-{cyclopropyl[2-fluoro-3-(trifluoromethyl)phenyl]methyl}-4-[(1,3-thiazol-2-ylamino)sulfonyl]benzamide] | 1290 | – |
| Cc1nnc(NS(=O)(=O)c2ccc(C(=O)NCc3ccc(C(F)(F)F)cc3)cc2)s1 [Example 11, 4-{[(5-Methyl-1,3,4-thiadiazol-2-yl)amino]sulfonyl}-N-[4-(trifluoromethyl)benzyl]benzamide] | 2560 | – |
| O=C(c1ccc(S(=O)(=O)Nc2nccs2)cc1)N1CCCC1Cc1cccc(Cl)c1 (centres unmarked) [Example 279, 4-{[2-(3-Chlorobenzyl)pyrrolidin-1-yl]carbonyl}-N-1,3-thiazol-2-yl-benzenesulfonamide] | 2200 | – |
| O=C(c1ccc(S(=O)(=O)Nc2nccs2)cc1)N1CCOC(COc2cc(F)cc(F)c2)C1 (centres unmarked) [Example 262, 4-({2-[(3,5-Difluorophenoxy)methyl]morpholin-4-yl}carbonyl)-N-1,3-thiazol-2-ylbenzenesulfonamide] | 6850 | – |
| Cc1nsc(NS(=O)(=O)c2ccc(C(=O)NCc3ccc(C(F)(F)F)cc3)cc2)n1 [Example 6, 4-{[(3-Methyl-1,2,4-thiadiazol-5-yl)amino]sulfonyl}-N-[4-(trifluoromethyl)benzyl]benzamide] | 1110 | – |
| COc1ccccc1C1CN(C(=O)c2ccc(S(=O)(=O)Nc3nccs3)cc2)CCO1 (centres unmarked) [Example 232, 4-{[2-(2-Methoxyphenyl)morpholin-4-yl]carbonyl}-N-1,3-thiazol-2-yl-benzenesulfonamide] | 3420 | – |
| N#CCCN(Cc1ccccc1)C(=O)c1ccc(S(=O)(=O)Nc2nccs2)cc1 [Example 218, N-benzyl-N-(2-cyanoethyl)-4-[(1,3-thiazol-2-yl-amino)sulfonyl]benzamide] | 21200 | – |
| O=C(NCc1cc(C(F)(F)F)ccc1Cl)c1ccc(S(=O)(=O)Nc2nccs2)cc1 [Example 120, N-[2-chloro-5-(trifluoromethyl)benzyl]-4-[(1,3-thiazol-2-ylamino)sulfonyl]benzamide] | 500 | – |
| CC(NC(=O)c1ccc(S(=O)(=O)Nc2ncc(Cl)s2)cc1)c1ccc(C(F)(F)F)cc1 (centres unmarked) [Example 44, 4-{[(5-Chloro-1,3-thiazol-2-yl)amino]sulfonyl}-N-{1-[4-(trifluoromethyl)phenyl]ethyl}benzamide] | 270 | – |
| Cc1csc(NS(=O)(=O)c2ccc(C(=O)NCc3ccc(C(F)(F)F)cc3)cc2)n1 [Example 391, 4-{[(4-methyl-1,3-thiazol-2-yl)amino]sulfonyl}-N-[4-(trifluoromethyl)benzyl] benzamide] | 1350 | – |
| O=C(NCc1ccc(C(F)(F)F)c(F)c1)c1ccc(S(=O)(=O)Nc2nccs2)cn1 [Example 340, N-[3-fluoro-4-(trifluoromethyl)benzyl]-5-[(1,3-thiazol-2-ylamino)sulfonyl]pyridine-2-carboxamide] | 280 | – |
| O=C(c1ccc(S(=O)(=O)Nc2nccs2)cc1)N1CCSCC1c1ccccc1Cl (centres unmarked) [Example 46, 4-{[3-(2-Chlorophenyl)thiomorpholin-4-yl]carbonyl}-N-1,3-thiazol-2-ylbenzenesulfonamide] | 1550 | – |
